Where a name gives a salt, the structure may show the parent alone.
How the values were obtained:
[1] = test system: tumor-bearing mouse model (non-small cell lung cancer model), A549 cells planted to nude mice; assay: Food intake and body weight in tumor-bearing mouse model (non-small cell lung cancer model), dosing from Day 23 after A549 plantation; format: in vivo; conditions: oral daily for 28 days (Day 23 to Day 50), Compound 1 0.25 mg/kg, anamorelin hydrochloride 30 mg/kg, combined 0.25 + 30 mg/kg, Dunnett's test P<0.05; for cumulative food intake in the period of administration, compared to distilled water-treated group: FIG. 3; for body weight after 28-day administration, compared to distilled water-treated group: FIG. 4
Protocol: Using tumor-bearing model animals where human alveolar basement epidermal gland cancer cells, A549 cells, were planted to nude mice, examination was performed about the drug efficacy on the food intake and body weight when Compound 1 and anamorelin hydrochloride were combined.
(§1) Subculture of A549 cells was performed using a 10% FBS-containing RPMI1640 culture medium. In evaluation of drug efficacy, 7-week old female BALB/C slc/nu/nu mice (Japan SLC, Inc.) were purchased, and used after habituated for one week. Cancer-bearing model animals were prepared as follows. Specifically, 2.5×10^7 cells of A549 cells were planted to the right abdominal of each mouse by subdermal administration. On Day 22 from the cell plantation, the mice were divided into groups to have an equal averaged tumor volume.
The effects of a variety of compounds on food intake and body weight were examined as follows. Specifically, for 28 days from Day 23 to Day 50 from the cell plantation, the compounds were orally administered daily, and the food intake and the body weight measured at the same time. For the doses of the compounds, the dose of Compound 1 was 0.25 mg/kg (13 examples), and the dose of anamorelin hydrochloride was 30 mg/kg (13 examples). In combined administration of Compound 1 and anamorelin hydrochloride, 0.25 mg/kg of Compound 1 and 30 mg/kg of anamorelin hydrochloride were used, where Compound 1 and anamorelin hydrochloride preliminarily dissolved in distilled water were mixed for preparation (13 examples). As a control, distilled water was administered in the same manner (13 examples). The food intake was calculated by subtracting the weight of the lid of each single cage containing food on the previous day from the weight of the lid of the single cage containing food on the day of measurement.
In FIG. 3, the ordinate represents the cumulative food intake in the period of administration of the compounds (from the start of administration to the day next to the final day of administration). In FIG. 4, the ordinate represents the body weight on Day 29 from the start of administration of the compounds (the day next to the final day of administration) (after 28-day administration). In the abscissas of FIGS. 3 and 4, “Distilled water” represents distilled water-treated group, “Compound 1” represents Compound 1-treated group, “Anamorelin” represents anamorelin hydrochloride-treated group, and “Combined administration” represents Compound 1 and anamorelin hydrochloride combined-treatment group. In FIGS. 3 and 4, the mark “*” represents a statistical significance (*: P<0.05) compared to distilled water-treated group (Dunnett's multiple test).

[2] = test system: tumor-bearing mouse model (non-small cell lung cancer model having ghrelin resistance), A549 cells planted into nude mice; assay: Food intake and body weight in tumor-bearing mouse model (non-small cell lung cancer model having ghrelin resistance), dosing from Day 43 after A549 plantation; format: in vivo; conditions: oral daily for 28 days (Day 43 to Day 70), Compound 1 0.25 mg/kg, anamorelin hydrochloride 30 mg/kg, combined 0.25 + 30 mg/kg, Dunnett's test P<0.05; for cumulative food intake in the period of administration, compared to distilled water-treated group: FIG. 1; for body weight after 28-day administration, compared to distilled water-treated group: FIG. 2
Protocol: Using tumor-bearing model animals where human alveolar basement epidermal gland cancer cells, A549 cells, were planted into nude mice, examination was performed about drug efficacy on the food intake and the body weight when Compound 1 and anamorelin hydrochloride (MedChemExpress LLC) were combined.
as §1, with “Tumor-bearing” for “Cancer-bearing”, “41” for “22”
The effects of a variety of compounds on food intake and body weight were examined as follows. Specifically, for 28 days from Day 43 to Day 70 from the cell plantation, the compounds were orally administered daily, and the food intake and the body weight were measured at the same time. For the doses of the compounds, the dose of Compound 1 was 0.25 mg/kg (9 examples), and that of anamorelin hydrochloride was 30 mg/kg (9 examples). In combined administration of Compound 1 and anamorelin hydrochloride, 0.25 mg/kg of Compound 1 and 30 mg/kg of anamorelin hydrochloride were used, where Compound 1 and anamorelin hydrochloride preliminarily dissolved in distilled water mixed for preparation (9 examples). As a control, distilled water was administered in the same manner (9 examples). The food intake was calculated by subtracting the weight of the lid of each single cage containing food on the previous day from the weight of the lid of the single cage containing food on the day of measurement.
In FIG. 1, the ordinate represents the cumulative food intake in the period of administration of the compounds (from the start of administration to the day next to the final day of administration). In FIG. 2, the ordinate represents the body weight on Day 29 from the start of administration of the compounds (the day next to the final day of administration) (after 28-day administration). In the abscissas of FIGS. 1 and 2, “Distilled water” represents distilled water-treated group, “Compound 1” represents Compound 1-treated group, “Anamorelin” represents anamorelin hydrochloride-treated group, and “Combined administration” represents Compound 1 and anamorelin hydrochloride-combined treatment group. In FIGS. 1 and 2, the mark “*” represents a statistical significance (*: P<0.05) compared to distilled water-treated group (Dunnett's multiple test).

[3] = test system: tumor-bearing mouse model (skin cancer model), B16/F10 cells planted to mice; assay: Food intake and body weight in tumor-bearing mouse model (skin cancer model), B16/F10 cells; format: in vivo; conditions: oral daily for 11 days (Day 5 to Day 15), Compound 1 0.05 mg/kg, anamorelin hydrochloride 30 mg/kg, combined 0.05 + 30 mg/kg; for cumulative food intake in the period of administration, compared to distilled water-treated group: Dunnett's test P<0.05, FIG. 5; for body weight after 11-day administration, compared to distilled water-treated group: FIG. 6
Protocol: Using tumor-bearing model animals where mouse malignant melanoma cells, B16/F10 cells, were planted to mice, and examination performed about the drug efficacy to the food intake and the body weight when Compound 1 and anamorelin hydrochloride were combined.
Subculture of B16/F10 cells was performed using a DMEM culture medium containing 10% FBS and penicillin-streptomycin. In evaluation of the drug efficacy, 6-weeks old female C57BL/6J mice (Charles River Laboratories, Japan, Inc.) when introduced were used after habituated for one week. The tumor-bearing model animals were prepared as follows. Specifically, 5×10^6 cells of B16/F10 cells were planted to the right abdominal of each mouse by subdermal administration. On Day 5 from the cell plantation, the mice were divided into groups to have an equal averaged tumor volume.
The effects of a variety of compounds on food intake and body weight were examined as follows. Specifically, for 11 days from Day 5 to Day 15 from the cell plantation, the compounds were orally administered daily, and the food intake and the body weight measured at the same time. For the doses of the compounds, the dose of Compound 1 was 0.05 mg/kg (8 examples), and that of anamorelin hydrochloride was 30 mg/kg (8 examples). In combined administration of Compound 1 and anamorelin hydrochloride, 0.05 mg/kg of Compound 1 and 30 mg/kg of anamorelin hydrochloride were used, where Compound 1 and anamorelin hydrochloride preliminarily dissolved in distilled water were mixed for preparation (8 examples). As a control, distilled water was administered in the same manner (8 examples). The food intake was calculated by subtracting the weight of the lid of each single cage containing food on the previous day from the weight of the lid of the single cage containing food on the day of measurement. Eight individuals of each group were divided into two cases, in each of which 4 individuals were raised. The food intake per one mouse was calculated by dividing the total food intake of the 2 cases by 8.
In FIG. 5, the ordinate represents the cumulative food intake in the period of administration of the compounds (from the start of administration to the day next to the final day of administration). In FIG. 6, the ordinate represents the body weight on Day 12 from the start of administration of the compounds (the day next to the final day of administration) (after 11-day administration). In the abscissas in FIGS. 5 and 6, “Distilled water” represents distilled water-treated group, “Compound 1” represents Compound 1-treated group, “Anamorelin” represents anamorelin hydrochloride-treated group, and “Combined administration” represents Compound 1 and anamorelin hydrochloride-combined treatment group. […]

[4] = third phase clinical trials; cited from earlier work

Row | Compound | cumulative food intake in the period of administration, compared to distilled water-treated group [1] | body weight after 28-day administration, compared to distilled water-treated group [1] | cumulative food intake in the period of administration, compared to distilled water-treated group [2] | body weight after 28-day administration, compared to distilled water-treated group [2] | cumulative food intake in the period of administration, compared to distilled water-treated group [3] | body weight after 11-day administration, compared to distilled water-treated group [3] | lean body mass [4]
1 | CN(C(=O)/C=C/c1ccoc1)[C@@H]1CC[C@@]2(O)[C@H]3Cc4ccc(O)c5c4[C@@]2(CCN3CC2CC2)[C@H]1O5 [Compound 1, (−)-17-(cyclopropylmethyl)-3,14β-dihydroxy-4,5α-epoxy-6β-[N-methyl-trans-3-(3-furyl)acrylamide]morphinanhydrochloride] | statistically significant increase of food intake was exhibited | statistically significant increase of body weight was exhibited | any statistically significant increase of food intake was not observed | any statistically significant increase in body weight was not observed | any statistically significant increase food intake was not observed | a tendency of increasing body weight was not exhibited | –
2 | CN(C)N(C)C(=O)[C@@]1(Cc2ccccc2)CCCN(C(=O)[C@@H](Cc2c[nH]c3ccccc23)NC(=O)C(C)(C)N)C1 [anamorelin hydrochloride, 2-amino-N-[(1R)-2-[(3R)-3-benzyl-3-(N,N′,N′-trimethylhydrazinocarbonyl)piperidin-1-yl-]-1-(1H-indol-3-ylmethyl)-2-oxoethyl]-2-methylpropionamide] | a tendency of increasing food intake was observed | statistically significant increase of body weight was exhibited | any statistically significant increase of food intake was not observed | any statistically significant increase in body weight was not observed | any statistically significant increase food intake was not observed | a tendency of increasing body weight was not exhibited | significantly increases lean body mass

— US20240139176A1, “METHODS OF TREATING OR PREVENTING CACHEXIA” (Toray Industries, Inc., priority 2019, published 2024)
